Assay results taken from US10967086B2, “Silver nanoparticle-enhanced photosensitizers as antibiofilm agents” (University Of Cincinnati, priority 2014, dated 2021).
Where a name gives a salt, the structure may show the parent alone.

Columns and labels:
[1] = Loading efficiency of photosensitizers in the hybrids (UV-Vis absorption); type: physicochemical; details: named photosensitizer loaded into Ag@mSiO2@photosensitizer hybrid; Example 1
Experimental: The loading efficiencies of the photosensitizers in the hybrids were determined by UV-Vis absorption. […] Zeta potential measurements were carried out to further investigate the surface properties of the hybrids.
The morphology of the Ag@mSiO2@photosensitizer hybrids was characterized by a Phillips Biotwin 12 transmission electron microscope (FEI). TEM samples were prepared by directly applying 10 μL of the sample ethanol solution onto a carbon-coated copper grid (300 mesh, EMS) and left to dry at room temperature. UV-Vis absorption spectra were measured using a UV-Vis spectrometer (USB4000-ISS, Ocean Optics). The loading efficiency of photosensitizers was determined by measuring the photosensitizers in the supernatant after centrifugation via UV-Vis absorption spectra. The Ag^+ concentration was measured by a triple quadruple ICP-MS (ICP-QQQ, Agilent Technologies).

[2] = tested on: Staphylococcus epidermidis (ATCC 35984); test: Photodynamic inactivation assay, white light, plate count; type: cell-based
Experimental: (§1) Photodynamic Inactivation Assays. Typically, overnight cultures of Staphylococcus epidermidis (ATCC 35984), Escherichia coli (ATCC 35218), and Acinetobacter baumannii (ATCC 19606) were inoculated into PBS buffer solution (pH=7.4) and mixed with a series of concentrations of Ag@mSiO2@HPIX hybrid, HPIX (dissolved in the same PBS buffer solution), or Ag@mSiO2 nanoparticles. All bacterial suspensions (200 μL) were then placed in the wells of 96-well plates. The final cell concentration of the suspensions was between about 10^6 and 10^7 colony-forming units per mL (CFU/mL). The wells were illuminated with different fluences. After illumination, a plate count was performed. Bacterial viability was determined by a modified version of the Miles and Misra method.
(§2) The suspensions were serially 10-fold diluted with PBS. Then, drops of 10 μL of each dilution were applied onto MH II agar plates. Plates were streaked in triplicate and incubated for 18-24 h at 37° C. in the dark before counting. A non-coherent, white light source with interchangeable fiber bundle (model LC-122, LumaCare) was used in all photoinactivation experiments. The irradiance at the position of the samples was kept at 300 mW/cm^2, as measured by a laser power meter (Model 840011, SPER Scientific).
Ag@mSiO2@HPIX was used as a model system in the PDI study. Ag@mSiO2@HPIX was first tested with S. epidermidis, a Gram-positive bacterium. […]

T. rubrum (ATCC 28188) = test: Photodynamic inactivation of T. rubrum, LED, plate count; type: cell-based, Tricophyton rubrum
Experimental: The in vitro PDI of T. rubrum (ATCC 28188) was investigated using different concentrations of Ag@mSiO2@HPIX hybrids, pure HPIX and Ag@mSiO2. Control experiments were carried out without the LED illumination. […] Separately, T. rubrum samples were treated with an LED light source (400 nm, 54 mW/cm2), after incubating for 30 min. with different concentrations of the Ag@mSiO2@HPIX hybrids, free HPIX, and Ag@mSiO2, respectively. […] Plate count method was employed to determine the viable fungal count, after the growth of the T. rubrum became visible. […] In these experiments, the pure HPIX and Ag@mSiO2@HPIX hybrids have the same concentration of HPIX while the amounts of Ag in Ag@mSiO2@HPIX hybrids and Ag@mSiO2 was also kept constant. The enhancement of antifungal PDI efficacy of Ag@mSiO2@HPIX hybrids is defined as log10(enhancement)=log10(Ag@mSiO2@HPIX_killing)−log10(Ag@mSiO2_killing)−log10(HPIX_killing)

[3] = tested on: Escherichia coli (ATCC 35218) biofilm; test: Photodynamic inactivation of biofilms, LED, plate count; type: cell-based
Experimental: (§3) Typically, overnight biofilms of Escherichia coli (ATCC 35218), and S. aureus (MRSA) (ATCC BAA44) were washed with PBS buffer solution (pH=7.4), mixed with a series of concentrations of Ag@mSiO2@HPIX hybrid, HPIX (dissolved in the same PBS buffer solution), or Ag@mSiO2 nanoparticles, and these mixtures were incubated for an hour. All biofilms were illuminated with different fluences from a light emitting diode. After illumination, the biofilm was washed to remove the nanoparticle solution or HPIX and disrupted biofilm. A serial dilution was performed and 10 μL of each dilution was plated on an MHB place and incubated for 24 hours at 37° C. Bacterial biofilm viability was determined by a modified version of the Miles and Misra method.
as §2
(§4) The in vitro PDI of MRSA (ATCC BAA44) and E. coli (ATCC 35218) was investigated using different concentrations of Ag@mSiO2@HPIX hybrids, pure HPIX and Ag@mSiO2. Control experiments were carried out without the LED illumination. […] Separately, MRSA and E. coli samples were treated with an LED light source (400 nm, 1000 mW/cm2), after incubating for 1 h. with different concentrations of the Ag@mSiO2@HPIX hybrids, free HPIX, and Ag@mSiO2, respectively. […] Plate count method was employed to determine the viable biofilm count, after the growth of the biofilm became visible. […] In these experiments, the pure HPIX and Ag@mSiO2@HPIX hybrids have the same concentration of HPIX while the amounts of Ag in Ag@mSiO2@HPIX hybrids and Ag@mSiO2 was also kept constant.
(§5) The enhancement of antibiofilm PDI efficacy of Ag@mSiO2@HPIX hybrids is defined as log10(enhancement)=log10(Ag@mSiO2@HPIX_killing)−log10(Ag@mSiO2_killing)−log10(HPIX_killing)

[4] = tested on: S. aureus (MRSA) (ATCC BAA44) biofilm; test: as above; type: cell-based
Experimental: as §3, §2, §4, §5

[5] = tested on: Acinetobacter baumannii (ATCC 19606); test: Photodynamic inactivation assay, white light, plate count; type: cell-based; details: Example 2
Experimental: as §1
as §2, with “Scientific). […]” for “Scientific).”

[6] = tested on: Escherichia coli (ATCC 35218); test: as above; type: cell-based; details: Example 2
Experimental: as §1
as §2, with “Scientific). […]” for “Scientific).”

[7] = dark control, tested concentrations
[8] = LED 400 nm, 1000 mW/cm2 (blue LED 1 W/cm^2, up to 90 min), after 1 h incubation

## O=C([O-])c1ccc(C2=C3C=CC(=N3)C(c3ccc(C(=O)[O-])cc3)=C3C=CC(=N3)C(=c3ccc(=C([O-])[O-])cc3)c3ccc([n-]3)C(c3ccc(C(=O)[O-])cc3)=C3C=CC2=N3)cc1.[67Cu+2].[H+].[H+].[H+].[H+] [Cu-TCPP, Cu(II) meso-tetra(4-carboxyphenyl) porphine]
[1]
  loading efficiency: 260.5 µg/mg

## CC1=C(CCC(=O)O)c2cc3[nH]c(cc4nc(cc5[nH]c(cc1n2)c(C)c5C(C)O)C(C)=C4C(C)O)c(C)c3CCC(=O)O (stereo not shown) [HPIX, hematoporphyrin IX dihydrochloride]
[1]
  loading efficiency: 27.4 µg/mg
[2]; parallel dark experiments
  antibacterial effect without light illumination: negligible antibacterial effect
T. rubrum (ATCC 28188); LED 400 nm, 54 mW/cm2, after 30 min incubation
  PDI efficacy under LED illumination: negligible PDI efficacy
T. rubrum (ATCC 28188); [7]
  antifungal effect without LED illumination: None of the Ag@mSiO2@HPIX hybrids, pure HPIX or Ag@mSiO2 at the tested concentrations shows antifungal effect
[3]; [8]
  PDI efficacy on biofilm under LED illumination: negligible PDI efficacy
[3]; [7]
  antibiofilm effects without LED illumination: None of the Ag@mSiO2@HPIX hybrids, pure HPIX or Ag@mSiO2 at the tested concentrations shows antibiofilm effects
[4]; [8]
  PDI efficacy on biofilm under LED illumination: negligible PDI efficacy
[4]; [7]
  antibiofilm effects without LED illumination: None of the Ag@mSiO2@HPIX hybrids, pure HPIX or Ag@mSiO2 at the tested concentrations shows antibiofilm effects

## CCC1=C(C)c2cc3[nH]c(cc4[nH]c(cc5nc(cc1n2)C(C)=C5CC)c(C)c4CCC(=O)O)c(CCC(=O)O)c3C [PIX, meso-porphyrin IX]
[1]
  loading efficiency: 750 µg/mg

## O=C1OC2(c3cc(I)c(O)c(I)c3Oc3c2cc(I)c(O)c3I)c2c(Cl)c(Cl)c(Cl)c(Cl)c21 [RB, rose bengal]
[1]
  loading efficiency: 33.6 µg/mg

## Cc1cc2nc3c(=O)[nH]c(=O)nc-3n(C[C@H](O)[C@H](O)[C@H](O)CO)c2cc1C [Riboflavin, riboflavin]
[2]; Example 2
  killing efficacy under visible light and near-infrared irradiations: needs visible light excitation to display rather moderate antibacterial effect
[5]
  killing efficacy under visible light and near-infrared irradiations: needs visible light excitation to display rather moderate antibacterial effect
[6]
  killing efficacy under visible light and near-infrared irradiations: needs visible light excitation to display rather moderate antibacterial effect

## O=C(O)c1ccc(-c2c3nc(c(-c4ccc(C(=O)O)cc4)c4ccc([nH]4)c(-c4ccc(C(=O)O)cc4)c4nc(c(-c5ccc(C(=O)O)cc5)c5ccc2[nH]5)C=C4)C=C3)cc1 [TCPP, meso-tetra(4-carboxyphenyl) porphine]
[1]
  loading efficiency: 140.7 µg/mg

## tris(2,2′-bipyridyl)dichlororuthenium(II) hexahydrate [RuBPy]
[1]
  loading efficiency: 28.3 µg/mg
